Read-outs that look alike come from different tables or passages of the source.
Tests used:
[1] = target: T1, HCV NS3 helicase NS3h_1b(con1) (Hepatitis C virus genotype 1b, UniProt Q9WMX2); assay: biochemical; assay type: biochemical, hepatitis C virus genotype 1b(con1)
T1 construct: truncated C-terminally His-tagged NS3 proteins lacking the N-terminal protease, called NS3h; His-tag (C); made in house
Excerpt: All oligonucleotides were purchased from Integrated DNA Technologies (IDT, Coralville, Iowa). The partially duplex DNA substrates used in MBHAs consisted of a helicase substrate forming 25 base pairs and consists of a 45-mer bottom strand 5′-GCTCCCCGTTCATCGATTGGGGAGC(T)20-3′ (SEQ ID NO:1) and the 25-mer HCV top strand 5′-Cy5-GCTCCCCAATCGATGAACGGGGAGC-IBRQ-3′ (SEQ ID NO:2). The 19 base pair RNA substrate used in MBHAs was composed of a 39 nucleotide long bottom strand 5′-AGU GCC UUG ACG AUA CAG C(U)20-3′ (SEQ ID NO:3) and the 24 nucleotide long top strand 5′-Tye^665-AGUGCGCUGUAUCGUCAAGGCACU-IBRQSp-3′ (SEQ ID NO:4). Underlined areas denote hairpin-forming regions. DNA and RNA substrates were annealed and purified as described previously (Belon & Frick (2008) BioTechniques 45:433-40, 442).
The cloning, expression, and purification of His-tagged recombinant HCV NS3 protein have been described previously (Lam, et al. (20030 J. Virol. 77:3950-61; Heck, et al. (2008) Antimicrob. Agents Chemother. 52:1901-11; Frick et al. (2010) Methods Mol. Biol. 587:223-233; Belon, et al. & Frick (2009) J. Mol. Biol. 388:851-864).
All molecular beacon-based helicase assays (MBHAs) were performed according to known methods (Belon & Frick (2008) supra; Belon & Frick (2009) supra). […] In each flat, black 384-well plate, 56 compounds were tested, in triplicate, along with three negative controls (DMSO only), three positive controls (500 nM dT20), and two wells with no enzyme. Fluorescence was read before ATP (F0) addition and 30 minutes after ATP was added to 1 mM (F30) using a Tecan Infinite M200 fluorescence microplate reader with excitation and emission wavelengths set to 643 and 670 nm, respectively. Percent inhibition was calculated with equation 1, and compound interference in the MBHA was calculated with equation 2.
To monitor helicase reaction kinetics and to calculate IC50 values, MBHAs were performed in 60 μL in white ½ area 96-well plates and measured in a Thermo Varioscan Multimode reader (Thermo Scientific) using the 643 nm excitation wavelength and 667 emission wavelengths. Reactions were again performed by first incubating all components except for ATP for two minutes, then initiated by injecting in 1/10 volume of ATP such that the final concentration of all components was as noted above. Conditions were as described above except that 5% v/v DMSO was present in each assay. Initial reaction velocities were calculated by fitting first-order decay equation to data obtained after ATP addition and calculating an initial velocity form the resulting amplitude and rate constant.
[formula] where, v0 is the velocity observed in DMSO-only controls inhibition, h is the Hillslope coefficient, [I] is the concentration of test compound.

[2] = system: HCV RLuc subgenomic replicon (genotype 1b) in Huh-7.5 cells; assay: HCV subgenomic replicon assay (Renilla luciferase); assay type: cell-based, hepatitis C virus
Excerpt: An HCV Renilla luciferase reporter construct (HCV RLuc; Huang, et al. (2006) Hepatology 43:81-90) was used to measure the effect of each compound on cellular HCV RNA levels. In HCV RLuc, the HCV internal ribosome entry site (IRES) drives the translation of the neomycin and Renilla luciferase genes while the HCV nonstructural proteins (NS3 to NS5B) are translated from the Encephalomyocarditis virus IRES (Huang, et al. (2006) supra). The plasmid DNA was cleaved with ScaI, purified by phenol/chloroform extraction followed by ethanol precipitation, and used as template for RNA transcription using […] T7 RNA transcription kit (Ambion, Austin, Tex.). The RNA transcripts were treated with 2 U DNase I (Ambion) at 37° C. for 30 minutes, purified by acid phenol/chloroform extraction, followed by isopropanol precipitation, and suspended in diethylpyrocarbonate-treated water. RNA concentration was determined by spectrophotometry by measuring the A260. RNA integrity and size was checked on 1% agarose gel. Transcribed RNA was stored in aliquots at −80° C. until needed.
Huh-7.5 cells were transfected with HCV RNA by electroporation. Briefly, subconfluent Huh7.5 cells were trypsinized, suspended in complete growth medium, and centrifuged at 1,000×g for 5 minutes at 4° C. The cell pellets were then washed twice with ice-cold phosphate-buffered saline (PBS) and suspended at 1.75×10^7 cells/mL in ice-cold PBS. Replicon RNA (5 μg) was mixed with 0.4 mL of cell suspension and transferred to 2 mm gap width electroporation cuvette (EPPENDORF AG, Germany) and pulsed 5 times for 99 μsec at 820 V over 1.1 sec intervals using the ECM 830 electroporator instrument (BTX Harvard Apparatus, Holliston, Mass.). After a 5 minute recovery period at room temperature, cells were transferred to 10 ml complete growth medium, and seeded into 10 cm diameter cell culture dishes. Twenty-four hours after transfection, the medium was replaced with fresh complete DMEM supplemented with 1 mg/ml geneticin (Invitrogen) and the medium was replaced every three to four days with fresh medium containing 1 mg/mL geneticin. Geneticin-resistant colonies were selected for a period of two weeks and expanded in the presence of 250 μg/mL geneticin.
HCV RLuc replicon cells were seeded at a density of 10×10^3 cells per well in 96-well plates and incubated for 4-5 hours to allow the cells to attach to the plate. The compounds dissolved in dimethyl sulfoxide (DMSO) were added at a final concentration of 10 μM (DMSO solvent final concentration was 0.5%) and the cells were incubated for 72 hours at 37° C. under 5% CO2 atmosphere. The effects of compounds on HCV replication were then assessed by measuring the Renilla luciferase activity in compound-treated versus DMSO-treated cells. At the end of the incubation period, the medium was aspirated and the cells were washed with 1×PBS. The Renilla luciferase reporter gene assay was performed using the Renilla luciferase assay kit (PROMEGA, Madison, Wis.) according to the manufacturer's instructions. Briefly, the cells were lysed by addition of 50 μL of 1× Renilla luciferase lysis buffer followed by two cycles of freeze/thaw. The luciferase activity content of the lysate was measured with a FLUOSTAR Omega microplate reader instrument (BMG Labtech, Germany) after injecting 50 μL of luciferase substrate and reading for 5 seconds.
To determine if the above identified compounds might be useful as HCV antiviral agents, they were added to cells harboring HCV subgenomic RNA replicon. The HCV replicon chosen was derived from the same HCV strain (genotype 1b) as the NS3 protein used for screening and enzyme assays. […] 75:4614-4624; Blight, et al. (2002) J. Virol. 76:13001-13014). […]

[3] = MBHA, DNA unwinding, mean ± SD of three titrations, read-out: Helicase IC50
[4] = genotype 1b (con1), read-out: Target Potency MBHA (IC50 avg., μM) 1b (con1)
[5] = standard HCV helicase MBHA (Table 9), read-out: DNA Unwinding IC50
[6] = Hepatitis C virus, Huh7.5, 10 μM compound, triplicate, average ± SD, read-out: HCV replication (% Inh.)
[7] = Hepatitis C virus, Huh7.5, 10 μM, read-out: Replicon (% Inhibition @ 10 μM)
[8] = DNA-based MBHA, genotype 1b, read-out: DNA Helicase NS3h_1b IC50 (μM) ± SD

T1 sequence (Q9WMX2 1192-1657): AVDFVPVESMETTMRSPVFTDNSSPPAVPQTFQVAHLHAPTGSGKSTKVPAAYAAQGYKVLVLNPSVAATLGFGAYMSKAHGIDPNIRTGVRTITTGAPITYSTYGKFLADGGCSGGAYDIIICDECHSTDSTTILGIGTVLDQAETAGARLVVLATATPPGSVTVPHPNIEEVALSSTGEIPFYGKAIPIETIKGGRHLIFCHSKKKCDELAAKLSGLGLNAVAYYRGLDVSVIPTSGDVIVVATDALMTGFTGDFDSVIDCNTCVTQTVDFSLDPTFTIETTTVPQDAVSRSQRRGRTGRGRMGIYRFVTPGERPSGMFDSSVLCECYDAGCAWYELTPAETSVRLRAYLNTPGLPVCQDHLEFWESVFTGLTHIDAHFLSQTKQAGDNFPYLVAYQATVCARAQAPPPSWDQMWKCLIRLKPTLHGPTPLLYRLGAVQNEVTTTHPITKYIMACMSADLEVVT

Compound Cc1ccc2nc(-c3ccc4nc(-c5ccc(NC(=O)c6ccccc6C(F)(F)F)cc5)sc4c3)sc2c1S(=O)(=O)O [Compound 19, 6-methyl-2′-(4-(2-(trifluoromethyl)benzamido)phenyl)-[2,6′-bibenzo[d]thiazole]-7-sulfonic acid] has an IC50 [1, 3] of 14 ± 1 µM, an IC50 [1, 4] of 14.1 ± 1 µM and an IC50 [1, 5] of 14 ± 1 µM. It also gave an inhibition at 10 µM [2, 6] of 0% and an inhibition at 10 µM [2, 7] of 0.3 ± 9%.
Cc1ccc2nc(-c3ccc4nc(-c5ccc(NS(=O)(=O)c6ccc(C(F)(F)F)cc6)cc5)sc4c3)sc2c1S(=O)(=O)O gave an IC50 [1, 4] of 32 ± 16 µM and an inhibition at 10 µM [2, 7] of -7 ± 14%.
In the case of Cc1ccc2nc(-c3ccc4nc(-c5ccc(NC(=O)c6cc(C(F)(F)F)cc(C(F)(F)F)c6)cc5)sc4c3)sc2c1S(=O)(=O)O [Compound 24, 2′-(4-(3,5-bis(trifluoromethyl)benzamido)phenyl)-6-methyl-[2,6′-bibenzo[d]thiazole]-7-sulfonic acid], the IC50 [1, 8] is reported as 22 ± 4.2 µM, the IC50 [1, 3] is reported as 22 ± 4 µM and the IC50 [1, 4] is reported as 22.2 ± 4 µM. It also gave an IC50 [1, 5] of 22 ± 4 µM, an inhibition at 10 µM [2, 6] of 60 ± 4% and an inhibition at 10 µM [2, 7] of 60 ± 4%. For the same compound, the EC50 ([2]; Hepatitis C virus, Huh7.5, HCV Rluc subgenomic replicon cells, read-out: concentration needed to reduce replicon-encoded luciferase by 50%) was 5 ± 2 µM, the “combination of compound 24 and telaprevir on replicon expression” value ([2]; Rluc subgenomic HCV replicon cells) was “No synergy” and the “loss of HCV replicon Rluc activity” value ([2]; elevated concentrations (>10 μM)) was “more than 90%”.
Cc1ccc2nc(-c3ccc4nc(-c5ccc(NC(=O)c6cccnc6)cc5)sc4c3)sc2c1S(=O)(=O)O [Compound 31, 6-methyl-2′-(4-(nicotinamido)phenyl)-[2,6′-bibenzo[d]thiazole]-7-sulfonic acid] was tested, and the inhibition at 10 µM [2, 6] was 51 ± 22% and the inhibition at 10 µM [2, 7] was 51 ± 22%.
Work on Cc1ccc2nc(-c3ccc(NC(=O)c4ccc(N)cc4)cc3)sc2c1S(=O)(=O)O yielded an IC50 [1, 4] of 69 ± 26 µM and an inhibition at 10 µM [2, 7] of 21 ± 29%.
Cc1ccc2nc(-c3ccc4nc(-c5ccc(NC(=O)c6cc(F)ccc6C(F)(F)F)cc5)sc4c3)sc2c1S(=O)(=O)O [Compound 26, 2′-(4-(5-fluoro-2-(trifluoromethyl)benzamido)phenyl)-6-methyl-[2,6′-bibenzo[d]thiazole]-7-sulfonic acid] was tested, and the IC50 [1, 3] was 19 ± 15 µM, the IC50 [1, 4] was 19 ± 15 µM and the IC50 [1, 5] was 19 ± 15 µM. It also gave an inhibition at 10 µM [2, 6] of 61 ± 14% and an inhibition at 10 µM [2, 7] of 61 ± 14%.
Work on Cc1ccc2nc(-c3ccc4nc(-c5ccc(N(C)C(=O)c6ccc7ccccc7c6)cc5)sc4c3)sc2c1S(=O)(=O)O [Compound 34, 6-methyl-2′-(4-(N-methyl-2-naphthamido)phenyl)-[2,6′-bibenzo[d]thiazole]-7-sulfonic acid] yielded an IC50 [1, 3] of 14 ± 0.1 µM, an IC50 [1, 4] of 14.4 ± 0.04 µM and an IC50 [1, 5] of 14 µM. The inhibition at 10 µM [2, 6] was -30 ± 30% and the inhibition at 10 µM [2, 7] was 24 ± 32%.
Cc1ccc2nc(-c3ccc4nc(-c5ccc(NC(=O)c6ccc(Br)cc6)cc5)sc4c3)sc2c1S(=O)(=O)O [Compound 15, 2′-(4-(4-bromobenzamido)phenyl)-6-methyl-[2,6′-bibenzo[d]thiazole]-7-sulfonic acid] was tested, and the IC50 [1, 8] was 5 ± 3.9 µM, the IC50 [1, 3] was 5.2 ± 4 µM and the IC50 [1, 4] was 5.2 ± 4 µM. For the same compound, the IC50 [1, 5] was 5 ± 4 µM, the inhibition at 10 µM [2, 6] was 7 ± 18% and the inhibition at 10 µM [2, 7] was 7 ± 18%.
Cc1ccc2nc(-c3ccc(NC(=O)c4ccc(C(F)(F)F)cc4)cc3)sc2c1S(=O)(=O)O was tested, and the IC50 [1, 4] was greater than 100 µM and the inhibition at 10 µM [2, 7] was 11 ± 14%.
Cc1ccc2nc(-c3ccc4nc(-c5ccc(NC(=O)c6ccc(Cl)cc6)cc5)sc4c3)sc2c1S(=O)(=O)O [Compound 10, 2′-(4-(4-chlorobenzamido)phenyl)-6-methyl-[2,6′-bibenzo[d]thiazole]-7-sulfonic acid] was tested, and the IC50 ([1]; DNA Unwinding IC50, standard HCV helicase MBHA (Table 9)) was 3 µM, the IC50 ([1]; Helicase IC50, MBHA, DNA unwinding, mean ± SD of three titrations) was 3.4 ± 0.3 µM and the IC50 ([1]; Target Potency MBHA (IC50 avg., μM) 1b (con1), genotype 1b (con1)) was 3.4 ± 0.3 µM. The inhibition at 10 µM ([2]; Hepatitis C virus, Huh7.5, read-out: HCV replication (% Inh.)) was 42 ± 9% and the inhibition at 10 µM ([2]; Hepatitis C virus, Huh7.5, read-out: Replicon (% Inhibition @ 10 μM)) was 42 ± 9%.
For Cc1ccc2nc(-c3ccc4nc(-c5ccc(NC(=O)c6ccc(C(C)(C)C)cc6)cc5)sc4c3)sc2c1S(=O)(=O)O [Compound 13, 2′-(4-(4-(tert-butyl)benzamido)phenyl)-6-methyl-[2,6′-bibenzo[d]thiazole]-7-sulfonic acid], the IC50 [1, 8] was 8 ± 1 µM, the IC50 [1, 3] was 8.2 ± 1 µM and the IC50 [1, 4] was 8.2 ± 1 µM. The IC50 [1, 5] was 8 ± 1 µM, the inhibition at 10 µM [2, 6] was 51 ± 9% and the inhibition at 10 µM [2, 7] was 51 ± 9%.
In the case of Cc1ccc2nc(-c3ccc4nc(-c5ccc(NC(=O)c6ccc7ncoc7c6)cc5)sc4c3)sc2c1S(=O)(=O)O, the IC50 [1, 4] is reported as 3.6 ± 1 µM and the inhibition at 10 µM [2, 7] is reported as 15 ± 11%.
Compound Cc1ccc2nc(-c3ccc4nc(-c5ccc(N)cc5)sc4c3)sc2c1S(=O)(=O)O [Compound P2a, 2′-(4-aminophenyl)-6-methyl-[2,6′-bibenzo[d]thiazole]-7-sulfonic acid] has an IC50 [1, 8] of 45 ± 14 µM, an IC50 [1, 3] of 49 µM and an IC50 [1, 5] of 6 ± 2 µM. For the same compound, the “times lower affinity towards NS3 than P4” value ([1]; versus P4) was 10-20 times.
In the case of Cc1ccc2nc(-c3ccc4nc(-c5ccc(NC(=O)c6ccncc6)cc5)sc4c3)sc2c1S(=O)(=O)O [Compound 32, 2′-(4-(isonicotinamido)phenyl)-6-methyl-[2,6′-bibenzo[d]thiazole]-7-sulfonic acid], the inhibition at 10 µM [2, 6] is reported as 59 ± 13% and the inhibition at 10 µM [2, 7] is reported as 59 ± 13%.

— patent US9464064B2, “HCV helicase inhibitors and methods of use thereof” (University of Kansas, priority 2011, dated 2016)
